# Results: paper PMC9995905, “Characteristics of antimicrobial peptide OaBac5mini and its bactericidal mechanism against Escherichia coli” (Frontiers in Veterinary Science, 2023)
# “Also recorded” adds a separate entry of the source. Where no end group is shown, it is not given here.
# Assays:
# E. coli ATCC 25922 [1] = assay: Time-kill curve; format: cell-based, Escherichia coli; details: MH broth, 37°C, 5×10^5 CFU/ml, triplicate
# Protocol: To investigate the time-kill effect of OaBac5mini against E. coli ATCC 25922, bacteria (5×10^5 CFU/ml) were cultured in fresh Mueller-Hinton (MH) broth (Yashi Organisms, China) with different concentrations of OaBac5mini (0, 50, 100, and 200 μg/ml) at 37°C with shaking at the speed of 220 rpm. Equal amounts (100 μl) of E. coli ATCC 25922 from each sample were withdrawn at 0, 2, 4, 6, 8, 10, 12, and 24 h, diluted with Luria-Bertani (LB) broth (Solarbio, China) and plated onto LB agar plates. Plates were placed at 37°C for 18 h for the CFU counts.
# E. coli ATCC 25922 [2] = assay: Permeability of the outer membrane (NPN uptake); format: cell-based, Escherichia coli; details: 25, 50, 100 and 200 μg/ml; 10 μM NPN; 60 min; P < 0.01; n = 3
# Protocol: The NPN uptake assay was conducted following the instructions of […] and […] ([25]) with minor modifications. In brief, E. coli. […] Fluorescence units were monitored immediately using INFINITE 200 PRO (Infinite® 2000, TECAN, Austria) at the excitation wavelength of 350 nm and emission wavelength of 420 nm for 100 min at 5 min intervals. Experiments were performed in biological triplicate.
# E. coli ATCC 25922 [3] = format: cell-based, Escherichia coli
# E. coli ATCC 25922 [4] = assay: Sensitivity to pH, temperature and repeated freeze-thawing (inhibition zone assay); format: physicochemical, Escherichia coli; details: 50 μg/ml, inhibition zone assay against E. coli ATCC 25922, repeated three times
# Protocol: The sensitivities of OaBac5mini to different pH, temperature, digestive enzymes, and repeated freeze-thawing conditions were determined using the inhibition zone assay as previously described ([23]). For pH sensitivity, OaBac5mini was diluted with each solution whose pH was individually adjusted to 2, 3, 4, 5, 6, 7, 8, 9, 10, 11 with HCl or NaOH, and incubated for 2 h, followed by adjusting the pH to 7 to end the reaction. For temperature sensitivity, the diluted peptide was incubated at 30, 40, 50, 60, 70, 80, 90, and 100°C for 30 min. To determine the digestive enzymes sensitivity, OaBac5mini was incubated with 100 μg/ml pepsin (in pH 2 sterile water, sigma, USA), 5–100 μg/ml trypsin (in pH 6.8 KH2PO4 buffer, sigma, USA) and 100 μg/ml protease K (Solarbio, China) at 37°C for 3 h, respectively. To end the reaction after incubation, the pepsin buffer was adjusted to pH 8, the trypsin solution and protease K solution were incubated at 95°C for 10 min. For repeated freeze-thawing sensitivity, OaBac5mini was frozen and then thawed at room temperature 0–12 times. All the final concentrations of OaBac5mini in sensitivity tests were 50 μg/ml. All experiments were repeated three times.
# E. coli ATCC 25922 [5] = assay: microbe, parasite or virus in culture; details: ATCC 25922
# Protocol: (§1) MICs of OaBac5mini, amoxicillin, kanamycin, florfenicol and tetracycline were determined using the two-fold broth microdilution method according to the Clinical and Laboratory Standards Institute (CLSI) guidance ([21]). MIC values of the tested antibacterial agents were determined on three independent occasions. Escherichia coli ATCC 25922 was used as the quality control in all the susceptibility tests.
# S. aureus ATCC 25923 = assay: microbe, parasite or virus in culture; details: ATCC 25923
# Protocol: as §1
# S. aureus B54 = assay: microbe, parasite or virus in culture; details: B54
# Excerpt: (§2) The strains of E. coli ATCC 25922 and S. aureus ATCC 25923 were purchased from the American Type Culture Collection (ATCC, Manassas, VA, United States). The strains of E. coli W13, E. coli IF4, E. coli 2, and E. coli 17 were individually isolated from the livers of diseased chickens infected by E. coli. The strains of S. aureus B5, S. aureus B9, S. aureus B54, and S. aureus B63 were individually isolated from the milk of cows with mastitis. These clinical isolates were all identified by the VITEK-32 system (bioMérieux, France) and PCR amplification sequencing.
# as §1
# E. coli 17 = assay: microbe, parasite or virus in culture; details: 17
# Excerpt: as §2, §1
# S. aureus B5 = assay: microbe, parasite or virus in culture; details: B5
# Excerpt: as §2, §1
# E. coli IF4 = assay: microbe, parasite or virus in culture; details: IF4
# Excerpt: as §2, §1
# E. coli 2 = assay: microbe, parasite or virus in culture; details: 2
# Excerpt: as §2, §1
# S. aureus B9 = assay: microbe, parasite or virus in culture; details: B9
# Excerpt: as §2, §1
# E. coli W13 = assay: microbe, parasite or virus in culture; details: W13
# Excerpt: as §2, §1
# S. aureus B63 = assay: microbe, parasite or virus in culture; details: B63
# Excerpt: as §2, §1
# IPEC-J2 cells = format: cell-based, porcine
# Protocol: The cells were maintained in CO2 incubator (Galaxy R, RS Biotech, Scotland) with 5% CO2 at 37°C. Real time cellular analysis (RTCA) was used to evaluate the proliferation and viability of IPEC-J2 cells. […] Real time cellular analysis was monitored using xCELLigence RTCA DP system (xCELLigence, ACEA biosciences, USA) for 100 h at 15 min intervals. The cell index was normalized by RTCA software 2.0 (xCELLigence, ACEA biosciences, USA).
# pepsin = target: T1, pepsin (Sus scrofa, UniProt P00791); assay: Digestive enzyme sensitivity (inhibition zone assay); format: in vitro ADME; details: 100 μg/ml pepsin in pH 2 sterile water, 37°C, 3 h; 50 μg/ml peptide; inhibition zone assay against E. coli ATCC 25922; repeated three times
# T1 construct: purchased sigma, USA
# Excerpt: (§3) All experiments were repeated three times.
# proteinase K = target: T2, proteinase K (Parengyodontium album, UniProt P06873); assay: as above; format: in vitro ADME; details: 100 μg/ml protease K, 37°C, 3 h; 50 μg/ml peptide; inhibition zone assay against E. coli ATCC 25922; repeated three times
# T2 construct: purchased Solarbio, China
# Excerpt: as §3
# T2 sequence (P06873 106-384): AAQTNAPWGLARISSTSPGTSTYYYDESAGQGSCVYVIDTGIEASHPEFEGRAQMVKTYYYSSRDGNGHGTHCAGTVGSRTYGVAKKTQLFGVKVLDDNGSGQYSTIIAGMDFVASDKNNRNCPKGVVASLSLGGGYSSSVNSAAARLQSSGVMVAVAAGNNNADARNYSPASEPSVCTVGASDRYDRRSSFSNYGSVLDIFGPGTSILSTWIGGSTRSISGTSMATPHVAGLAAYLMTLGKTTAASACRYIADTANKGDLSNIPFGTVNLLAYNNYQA
# T1 sequence (P00791 60-385): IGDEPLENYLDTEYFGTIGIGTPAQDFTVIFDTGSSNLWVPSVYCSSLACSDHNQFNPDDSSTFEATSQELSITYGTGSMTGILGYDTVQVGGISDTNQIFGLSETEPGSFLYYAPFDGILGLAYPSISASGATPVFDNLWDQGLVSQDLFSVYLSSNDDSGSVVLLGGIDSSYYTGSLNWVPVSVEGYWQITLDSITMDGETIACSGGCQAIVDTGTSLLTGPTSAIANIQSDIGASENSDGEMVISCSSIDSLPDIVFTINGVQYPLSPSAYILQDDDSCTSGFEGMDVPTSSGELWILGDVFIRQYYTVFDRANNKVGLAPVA
sequence,measurement,setting,value
RFRPPIRRPPIRPPFRPPFRPPVR [OaBac5mini],Time-kill effect at 50 μg/ml (2 × MIC),"E. coli ATCC 25922 [1]; 50 μg/ml, 24 h",the number of bacteria remained stable in the first co-incubation for 8h before it increased
same,Time-kill effect at 100 μg/ml,"E. coli ATCC 25922 [1]; 100 μg/ml, 24 h",decrease after co-incubation for 12 h and increase in further co-incubation for 12 h
same,Time-kill effect at 200 μg/ml (8 × MIC),"E. coli ATCC 25922 [1]; 200 μg/ml, co-incubation for 12 h",could effectively kill; also recorded: effectively killed
same,Average fluorescence intensity of NPN (outer membrane permeability) compared with the negative control,E. coli ATCC 25922 [2],significantly increased
same,Increase of MIC in the presence of physiological concentration of CaCl2,"E. coli ATCC 25922 [3]; 2.5 mM CaCl2 versus MH broth alone, E. coli ATCC 25922",four-fold
same,MIC against E. coli ATCC 25922 in MH broth,E. coli ATCC 25922 [3]; ATCC 25922,25 mg/L
same,MIC against E. coli ATCC 25922 in MH broth + CaCl2,E. coli ATCC 25922 [3]; ATCC 25922,100 mg/L
same,MIC against E. coli ATCC 25922 in MH broth + FeCl3,E. coli ATCC 25922 [3]; ATCC 25922,16.67 mg/L
same,MIC against E. coli ATCC 25922 in MH broth + KCl,E. coli ATCC 25922 [3]; ATCC 25922,20.83 mg/L
same,MIC against E. coli ATCC 25922 in MH broth + MgCl2,E. coli ATCC 25922 [3]; ATCC 25922,50 mg/L
same,MIC against E. coli ATCC 25922 in MH broth + NH4Cl,E. coli ATCC 25922 [3]; ATCC 25922,12.5 mg/L
same,MIC against E. coli ATCC 25922 in MH broth + NaCl,E. coli ATCC 25922 [3]; ATCC 25922,33.33 mg/L
same,Antibacterial activity after treatment at high temperature,E. coli ATCC 25922 [4]; 30-100°C for 30 min,stable antibacterial activity
same,Antibacterial activity after repeated freeze-thawing,E. coli ATCC 25922 [4]; frozen and thawed at room temperature 0-12 times,stable antibacterial activity
same,Antibacterial activity after treatment at different pH,"E. coli ATCC 25922 [4]; pH 2-11 (HCl or NaOH), 2 h, then adjusted to pH 7",stable antibacterial activity; also recorded: not significantly affected
same,MIC against E. coli ATCC 25922,E. coli ATCC 25922 [5],25 mg/L
same,MIC against S. aureus ATCC 25923,S. aureus ATCC 25923,>250 mg/L
same,MIC against S. aureus B54,S. aureus B54,250 mg/L
same,MIC against E. coli 17,E. coli 17,3.26 mg/L
same,MIC against S. aureus B5,S. aureus B5,>250 mg/L
same,MIC against E. coli IF4,E. coli IF4,2.60 mg/L
same,MIC against E. coli 2,E. coli 2,1.95 mg/L
same,MIC against S. aureus B9,S. aureus B9,250 mg/L
same,MIC against E. coli W13,E. coli W13,3.26 mg/L
same,MIC against S. aureus B63,S. aureus B63,208.33 mg/L
same,Cell indexes of IPEC-J2 cells at 400 μg/ml compared to the control group,IPEC-J2 cells,didn't change significantly
same,Cell indexes of treated IPEC-J2 cells compared with the control group,IPEC-J2 cells,significant increase
same,Antibacterial activity after treatment with pepsin,pepsin,stable antibacterial activity; also recorded: not significantly affected
same,Antibacterial activity after treatment with proteinase K,proteinase K,stable antibacterial activity; also recorded: no significant effect
